Test system: dendritic cells
Assay: Transwell overlaid with type 1 collagen or HMVEC-dLy monolayer, chemotaxis to CCL21 with and without Sema3A, after myosin II or Rho kinase inhibition
Assay type: cell-based, mouse
Description: An uncoated Transwell (pore diameter 5.0 μm; Corning) was placed in a 24-well plate containing CCL21 or CSCL12 in 0.6 ml of RPM1 containing 0.1% BSA. 1×10^5 dendritic cells in 0.1 ml of solution were added to the upper well of the Transwell, and incubated for 3 hours at 37° C. The cells in the […] chamber were ablated for 5 minutes with 5 mM PBS-EDTA, and counted by Guava. Fibronectin ([…]), type 1 collagen (3.0 mg/ml) or lymphatic endothelial cells were laid over the membrane of the top chamber for purposes of in vitro migration assay. In brief, 2×10^4 SVEC4-10 or HMVEC-dLy cells were seeded on the top or bottom surface of a Transwell insert coated with 2 μg/ml of fibronectin. […]
BMDC cells that had been treated for 30 minutes at 37° C. with 50 μM of blebbistatin or 30 μM of Y-27632 were applied to the upper chamber of a Transwell (pore diameter: 5 μm) overlaid with 3 mg/ml of type 1 collagen (left panel) and an HMVEC-dLy monolayer (right panel), and chemotaxis in response to CCL21 was measured in the […] chamber with and without Sema3A. The overall difference between groups was evaluated by one-way ANOVA. […]
A Transwell test was performed by the following methods. […] The cells in the lower chamber were ablated for 5 minutes by treatment with 5 mM of PBS-EDTA, and counted by Guava ViaCount assay on a Guava PCA system. […]

With `C[C@@H](N)[C@H]1CC[C@H](C(=O)Nc2ccncc2)CC1` [Y-27632] the “effect of Sema3A on dendritic cell trafficking after inhibitor treatment” value (DC cells treated 30 minutes at 37° C. with 30 μM Y-27632) was “disappeared”.

For `Cc1ccc2c(c1)C(=O)C1(O)CCN(c3ccccc3)C1=N2` (centres unmarked) [blebbistatin], the “effect of Sema3A on dendritic cell trafficking after inhibitor treatment” value (DC cells treated 30 minutes at 37° C. with 50 μM blebbistatin) was “disappeared”.
